Our source for the IC50 and Kd values is US11242344B2, “(4-hydroxypyrrolidin-2-yl)-heterocyclic compounds and methods of use thereof” (Genentech, Inc., priority 2017, dated 2022).

A word on the IC50: it is the concentration that inhibits the measured activity by half. In general, Kd refers to the free concentration of one partner at which half of the binding sites on the other are occupied at equilibrium, for simple one-to-one binding. Low readings indicate a tighter complex, high ones a looser complex.

In assay [1] the target is VHL Elongin B/C complex (Homo sapiens (Human), UniProt P40337). Description: Fluorescence Polarization (FP) VHL Binding Assay. Particulars: VHL binding, FP assay; geometric mean where more than one measurement. On the procedure:
The binding of test compounds to the VHL Elongin B/C complex was measured using a fluorescence polarization tracer competition assay. The VHL/Elongin B/C protein complex used in the assay was generated as follows. The coding region for amino acids E55-D213 of human VHL with N-terminal His6 tag with a TEV-protease cleavage site was co-expressed with Elongin B (residues M1-Q118) and Elongin C (Residues M17-C112) in E. coli. […] The purified VHL/Elongin B/C complex was dialyzed into formulation buffer: 20 mM Bis-Tris pH7.0, 150 mM NaCl, 1 mM DTT. A VHL fluorescence polarization probe (prepared in Example 91), consisted of a VHL ligand coupled to carboxytetramethylrhodamine (TAMRA); […] Compounds were prepared as a serial dilution in DMSO at a concentration 25-fold higher than the final desired concentration and acoustically dispensed (400 nl) into a ProxiPlate-384 Plus F, Black 384-shallow well Microplate (Part Number 6008260). DMSO was dispensed into wells designated for “VHL control” (without compound) wells. The “Assay Buffer” consisted of 50 mM Tris pH 8.0, 120 mM NaCl, 0.005% Nonidet P-40, and 1% DMSO (v/v). Assay Buffer containing […] VHL Elongin B/C complex was prepared and 5 μl dispensed using a BioRapTR (Beckman Coulter) into each well of the assay plate. Assay Buffer was also dispensed into “no VHL control” wells using the same method. A “pre-assay” fluorescence measurement was made using an Infinite® M1000 (Tecan) plate reader (Excitation 530 nm, Emission 574 nm, Bandwidth 10 nm). Assay Buffer containing 3.34 nM of the VHL FP probe was prepared in Assay Buffer and 5 μl dispensed into each well of the assay plate using a BioRapTR (Beckman Coulter). The final VHL/Elongin B/C protein concentration is 2.64 nM and the final probe concentration is 1.67 nM. Assay plates were briefly centrifuged and incubated for 1 hour at room temperature. “Post-assay” fluorescence polarization measurements were made as described for the “pre-assay” fluorescence measurement. Fluorescence polarization was calculated for each sample; taking into account the “pre-assay” fluorescence measurements and subtracting the fluorescence signal of the compound/VHL only (“pre-assay”) measurements from the “post-assay” fluorescence polarization measurements, for each plane of polarization. The data were analyzed using Genedata Screener software and normalized to the “no VHL control” and “VHL control” (without compound). IC50 values were calculated using a four parameter curve fit (Robust method).
Background: In fluorescence polarisation assays a small probe gives low polarisation when free and higher when bound to something large.

Assay [2] has as its target VHL co-expressed with Elongins B and C (Homo sapiens (Human), UniProt P40337). Description: Surface Plasmon Resonance Assay. The class given is binding. Particulars: SPR measured VHL affinity; geometric mean where more than one measurement. On the procedure:
Using a Biacore T200, […] tagged VHL co-expressed with Elongins B and C were immobilized to a Biacore SA chip in running buffer without DMSO. Compounds were tested individually at varying concentrations in running buffer (50 mM HEPES pH 7.2, 150 mM NaCl, 0.5 mM TCEP, 0.001% Tween 20, 0.2% PEG3350, 2% DMSO) at 20° C. Sensorgrams were run in order from low to high concentration using a flow rate of 80 μL/min. Association and disassociation times were varied depending on the estimated potency of the compound tested. […] Galdeano et al, J. Med. Chem. 2014, 57, 8657-8663, herein incorporated by reference) which retained greater than 75% of the activity over the course of the run. Analysis of the binding curves and determination of the kinetic parameters were done using evaluation software (Version 2.0, Biacore).
In general terms: Surface plasmon resonance follows binding to a sensor surface in real time, without labels.

VHL co-expressed with Elongins B and C, sequence (P40337 whole entry, looked up): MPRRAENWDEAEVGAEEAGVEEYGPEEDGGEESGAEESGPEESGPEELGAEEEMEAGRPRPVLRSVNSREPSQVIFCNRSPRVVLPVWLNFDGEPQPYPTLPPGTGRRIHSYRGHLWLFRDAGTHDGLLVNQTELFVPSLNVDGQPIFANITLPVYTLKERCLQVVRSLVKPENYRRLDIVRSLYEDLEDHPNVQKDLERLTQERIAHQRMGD
VHL co-expressed with Elongins B and C, sequence (Q15370 whole entry partner, looked up): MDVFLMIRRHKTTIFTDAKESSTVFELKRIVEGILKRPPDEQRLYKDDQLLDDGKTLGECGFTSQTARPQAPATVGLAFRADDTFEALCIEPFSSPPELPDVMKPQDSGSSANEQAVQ
VHL co-expressed with Elongins B and C, sequence (Q15369 whole entry partner, looked up): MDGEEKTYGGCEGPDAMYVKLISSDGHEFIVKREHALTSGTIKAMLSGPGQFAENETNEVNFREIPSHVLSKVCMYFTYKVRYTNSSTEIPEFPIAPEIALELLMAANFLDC
VHL Elongin B/C complex, sequence (P40337 whole entry, looked up, the tested form may be a part): as the sequence (P40337 whole entry, looked up) above
VHL Elongin B/C complex, sequence (Q15370 whole entry partner, looked up, the tested form may be a part): as the sequence (Q15370 whole entry partner, looked up) above
VHL Elongin B/C complex, sequence (Q15369 whole entry partner, looked up, the tested form may be a part): as the sequence (Q15369 whole entry partner, looked up) above

Regarding `Cc1cc(C(C(=O)N2C[C@H](O)CC2C2=NC(=O)C(C)(c3ccc(-c4cccnc4C)cc3)N2)C(C)C)on1` (single isomer, unassigned) [Example 106.1], in assay [1], the IC50 is greater than 400 µM. This compound also registered a Kd in assay [2] greater than 150 µM.

With `Cc1cc(C(C(=O)N2C[C@H](O)CC2C2=NC(=O)C(C)(c3ccc(-c4cccnc4C)cc3)N2)C(C)C)on1` (single isomer, unassigned) [Example 106.2], in assay [1], the IC50 is greater than 400 µM. In assay [2], this compound had an equilibrium dissociation constant (Kd) greater than 150 µM.

Compound `Cc1cc(C(C(=O)N2C[C@H](O)CC2C2=NC(=O)C(C)(c3ccc(-c4cccnc4C)cc3)N2)C(C)C)on1` (single isomer, unassigned) [Example 106.3] gave a 50% inhibitory concentration (IC50) in assay [1] greater than 400 µM. The Kd in assay [2] is greater than 150 µM.

`Cc1cc(C(C(=O)N2C[C@H](O)CC2C2=NC(=O)C(C)(c3ccc(-c4cccnc4C)cc3)N2)C(C)C)on1` (single isomer, unassigned) [Example 106.4] had an IC50 in assay [1] of 2.96 µM. Binding in assay [2] was put at a Kd of 0.895 µM.

Compound `Cc1cc(C(C(=O)N2C[C@H](O)CC2C2=NC(=O)C(C)(C)N2)C(C)C)on1` (single isomer, unassigned) [Example 107.2] had an IC50 in assay [1] of 24.1 µM. This compound also displayed a dissociation constant Kd in assay [2] of 14.9 µM.

Compound `Cc1cc(C(C(=O)N2C[C@H](O)CC2C2=NC(=O)C(C)(C)N2)C(C)C)on1` (single isomer, unassigned) [Example 107.3] registered a half-maximal inhibitory concentration (IC50) in assay [1] greater than 50 µM. The compound also gave a dissociation constant (Kd) in assay [2] greater than 150 µM.

With `Cc1cc(C(C(=O)N2C[C@H](O)CC2C2=NC(=O)C(C)(C)N2)C(C)C)on1` (single isomer, unassigned) [Example 107.4], in assay [1], the 50% inhibitory concentration (IC50) was greater than 50 µM. For the same compound, the Kd in assay [2] is greater than 150 µM.

The compound `Cc1cc(C(C(=O)N2C[C@H](O)CC2C2=NC(=O)C(C)(c3ccc(-c4cccc(=O)n4C)cc3)N2)C(C)C)on1` (single isomer, unassigned) [Example 108.1] gave an IC50 in assay [1] of 57.5 µM. In assay [2], this compound gave a Kd of 13.9 µM.

Consider `Cc1cc(C(C(=O)N2C[C@H](O)CC2C2=NC(=O)C(C)(c3ccc(-c4cccc(=O)n4C)cc3)N2)C(C)C)on1` (single isomer, unassigned) [Example 108.2], for which the IC50 in assay [1] was found to be 11 µM. The compound also gave an equilibrium dissociation constant (Kd) in assay [2] of 3.95 µM.

`Cc1cc(C(C(=O)N2C[C@H](O)CC2C2=NC(=O)C(C)(c3ccc(-c4cccc(=O)n4C)cc3)N2)C(C)C)on1` (single isomer, unassigned) [Example 108.3] yielded an IC50 in assay [1] greater than 400 µM. Besides, the dissociation constant Kd in assay [2] was greater than 0.3 µM.

For `Cc1cc(C(C(=O)N2C[C@H](O)CC2C2=NC(=O)C(C)(c3ccc(-c4cccc(=O)n4C)cc3)N2)C(C)C)on1` (single isomer, unassigned) [Example 108.4], in assay [1], the IC50 is greater than 400 µM. Further, the Kd in assay [2] is greater than 0.3 µM.

In assay [1], `Cc1cc([C@@H](C(=O)N2C[C@H](O)C[C@H]2C2=NOC(c3ccc(Br)cc3)(C(F)(F)F)N2)C(C)C)on1` (single isomer, unassigned) [Example 133.2] returned a 50% inhibitory concentration (IC50) of no less than 400 µM. Moreover, the Kd in assay [2] is no less than 150 µM.
